# From patent US20260125389A1, “MEMBRANE-ASSOCIATED TYROSINE AND THREONINE KINASE INHIBITOR AND USE THEREOF” (HAINAN SIMCERE ZAIMING PHARMACEUTICAL CO., LTD., priority 2022, published 2026)
# Target: T1, PKMYT1 (Homo sapiens, UniProt Q99640)
# T1 sequence (Q99640 1-499): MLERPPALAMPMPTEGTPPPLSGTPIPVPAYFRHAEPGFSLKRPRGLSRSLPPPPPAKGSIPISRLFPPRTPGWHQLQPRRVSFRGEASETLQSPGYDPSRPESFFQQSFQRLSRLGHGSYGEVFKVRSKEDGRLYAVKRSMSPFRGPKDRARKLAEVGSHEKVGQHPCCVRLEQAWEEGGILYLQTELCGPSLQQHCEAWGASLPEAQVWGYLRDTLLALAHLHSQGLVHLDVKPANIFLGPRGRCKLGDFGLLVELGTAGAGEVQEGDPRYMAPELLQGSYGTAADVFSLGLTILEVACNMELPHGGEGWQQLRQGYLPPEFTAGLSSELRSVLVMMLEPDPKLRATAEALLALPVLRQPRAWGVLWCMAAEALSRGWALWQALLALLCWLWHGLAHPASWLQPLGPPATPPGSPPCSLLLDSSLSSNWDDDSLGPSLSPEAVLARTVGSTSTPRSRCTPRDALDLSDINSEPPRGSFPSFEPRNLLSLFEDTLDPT
# Experiment: Inhibition assay for PKMYT1 enzyme activity (ADP-Glo)
# Format: biochemical
# Details: MYT1 2 ng/μL, ATP 25 μM, substrate CDK1 20 ng/μL, 40 min reaction, read-out: IC50 values of compounds for PKMYT1 inhibition activity
# Protocol: Experimental principle: After co-incubation of PKMYT1 with the compound, the substrate CDK1 was phosphorylated under the action of ATP. ADP produced by the reaction was quantified using an ADP-Glo™ assay kit from Promega to reflect the enzyme activity.
# Experimental method: Using the Echo liquid handler, the test compound was diluted to different concentrations in dimethyl sulfoxide (DMSO) and transferred to a 384-well plate. Thus, the final concentration of the compound in the reaction system started at 1 μM and was subjected to a 3-fold serial dilution, with the final DMSO concentration maintained at 1%. 50 nL/well of the test compound solution was added. 3 μL/well of MYT1 diluted with Kinase Dilution Buffer was then added. […] After incubation for 30 min, the fluorescence signal values were measured using an Envision microplate reader.
# The % compound inhibition was calculated and fitted using XLfit software to obtain the IC50 value of the compound. […]
# Herein, the experimental well, blank well, and DMSO group refer to the fluorescence signal values recorded from the experimental group, blank group, and DMSO group, respectively.
# The inhibitory activity of the compounds of the present application on PKMYT1 was determined by the above assay, and the IC50 values obtained are as shown in Table 1.
row,IC50 [nM],Compound
1,8.8,"Cc1ccc(O)c(C)c1-n1c(N)c2c3c(ncnc31)-c1ccccc1NC2=O [Compound 1, 5-amino-4-(3-hydroxy-2,6-dimethylphenyl)-4,7-dihydro-6H-1,3,4,7-tetraazadibenzo[cd,f]azulen-6-one]"
2,5.7,"Cc1nc2c3c(c(N)n(-c4c(C)ccc(O)c4C)c3n1)C(=O)Nc1ccccc1-2 [Compound 2, 5-amino-4-(3-hydroxy-2,6-dimethylphenyl)-2-methyl-4,7-dihydro-6H-1,3,4,7-tetraazadibenzo[cd,f]azulen-6-one]"

# System: HCC1569 cells
# Experiment: Inhibition of tumor cell proliferation (CTG, HCC1569)
# Format: cell-based
# Details: Homo sapiens, 168 h, 7 days incubation, CTG readout, read-out: IC50 of compounds for inhibition of HCC1569 cell growth
# Protocol: Experimental principle: The compound was incubated with tumor cells for 7 days, and ATP in viable cells was quantified using the CTG kit from Promega to evaluate the effect of the compound on tumor cell proliferation.
# Experimental method: The cultured cells were resuspended after being rinsed with PBS (for adherent cells) and digested with 0.25% Trypsin-EDTA, followed by cell counting to determine cell density and viability. 3000 HCC1569 cells/well were diluted with RPMI Medium 1640 containing 10% FBS, added to a 96-well plate (90 μL/well), and cultured in an incubator at 37° C. with 5% CO2 for 24 h. The test compound was diluted to different concentrations in dimethyl sulfoxide (DMSO) and added to a 96-well plate. Thus, the final concentration of the compound in the reaction system started at 25 μM and was subjected to a 4-fold serial dilution, with the final DMSO concentration maintained at 0.25%. The compound and cells were further incubated at 37° C. with 5% CO2 for 7 days. 50 μL/well of CTG was then added to measure the inhibitory effect of the compound on tumor cell growth, and the inhibition rate and half-maximal inhibitory concentration (IC50) were calculated.
# The % compound inhibition was calculated and fitted using XLfit software to obtain the IC50 of the compound.
# Blank wells and DMSO wells were set up. The blank well contained 100 μL of RPMI Medium 1640 with 10% FBS, where the inhibition rate of the compound on tumor cell growth was considered 100%. The DMSO well contained 0.25% DMSO added to the cell well, where the inhibition rate of the compound on tumor cell growth was considered 0%.
row,Compound,IC50 [nM]
1,"Cc1nc2c3c(c(N)n(-c4c(C)ccc(O)c4C)c3n1)C(=O)NCc1c-2ccnc1OC(F)F [Compound 39, 2-amino-6-(difluoromethoxy)-1-(3-hydroxy-2,6-dimethylphenyl)-11-methyl-4,5-dihydro-1,4,7,10,12-pentaazabenzo[4,5]cyclooctatetraeno[1,2,3-cd]inden-3(1H)-one]",81.9
2,"Cc1nc2c3c(c(N)n(-c4c(C)ccc(O)c4C)c3n1)C(=O)NCc1c-2ccnc1OCF [Compound 40, 2-amino-6-(fluoromethoxy)-1-(3-hydroxy-2,6-dimethylphenyl)-11-methyl-4,5-dihydro-1,4,7,10,12-pentaazabenzo[4,5]cyclooctatetraeno[1,2,3-cd]inden-3(1H)-one]",87.6
3,"Cc1nc2c3c(c(N)n(-c4c(C)ccc(O)c4C)c3n1)C(=O)NCc1c-2ccnc1OC(F)(F)F [Compound 41, 2-amino-1-(3-hydroxy-2,6-dimethylphenyl)-11-methyl-6-(trifluoromethoxy)-4,5-dihydro-1,4,7,10,12-pentaazabenzo[4,5]cyclooctatetraeno[1,2,3-cd]inden-3(1H)-one]",86.1
4,"COCCn1ncc2c1NC(=O)c1c(N)n(-c3c(C)ccc(O)c3C)c3nc(C)nc-2c13 [Compound 43, 5-amino-4-(3-hydroxy-2,6-dimethylphenyl)-8-(2-methoxyethyl)-2-methyl-7,8-dihydro-1,3,4,7,8,9-hexaazabenzo[cd]cyclopenta[f]azulen-6(4H)-one]",291
5,"Cc1ccc(O)c(C)c1-n1c(N)c2c3c(c(C)c(C)nc31)-c1nn(C)cc1NC2=O [Compound 44, 5-amino-4-(3-hydroxy-2,6-dimethylphenyl)-1,2,9-trimethyl-7,9-dihydro-3,4,7,9,10-pentaazabenzo[cd]cyclopenta[f]azulen-6(4H)-one]",55.2
6,"Cc1nc2c3c(c(N)n(-c4c(C)ccc(O)c4C)c3n1)C(=O)NCc1c-2ccnc1C#N [Compound 45, 2-amino-1-(3-hydroxy-2,6-dimethylphenyl)-11-methyl-3-oxo-1,3,4,5-tetrahydro-1,4,7,10,12-pentaazabenzo[4,5]cyclooctatetraeno[1,2,3-cd]indene-6-carbonitrile]",194
7,"Cc1nc2c3c(c(N)n(-c4c(C)ccc(O)c4C)c3n1)C(=O)NCc1c-2ccnc1C1CC1 [Compound 46, 2-amino-6-cyclopropyl-1-(3-hydroxy-2,6-dimethylphenyl)-11-methyl-4,5-dihydro-1,4,7,10,12-pentaazabenzo[4,5]cyclooctatetraeno[1,2,3-cd]inden-3(1H)-one]",113

# These reach a lower IC50. Values come first.
row,IC50 [nM],Compound
1,42,"Cc1ccc(O)c(C)c1-n1c(N)c2c3c(ncnc31)-c1ccccc1NC2=O [Compound 1, 5-amino-4-(3-hydroxy-2,6-dimethylphenyl)-4,7-dihydro-6H-1,3,4,7-tetraazadibenzo[cd,f]azulen-6-one]"
2,22,"Cc1nc2c3c(c(N)n(-c4c(C)ccc(O)c4C)c3n1)C(=O)Nc1ccccc1-2 [Compound 2, 5-amino-4-(3-hydroxy-2,6-dimethylphenyl)-2-methyl-4,7-dihydro-6H-1,3,4,7-tetraazadibenzo[cd,f]azulen-6-one]"
3,46.3,"Cc1nc2c3c(c(N)n(-c4c(C)ccc(O)c4C)c3n1)C(=O)Nc1c-2cnn1C(F)F [Compound 42, 5-amino-8-(difluoromethyl)-4-(3-hydroxy-2,6-dimethylphenyl)-2-methyl-7,8-dihydro-1,3,4,7,8,9-hexaazabenzo[cd]cyclopenta[f]azulen-6(4H)-one]"
4,32,"CCOc1nccc2c1CNC(=O)c1c(N)n(-c3c(C)ccc(O)c3C)c3nc(C)nc-2c13 [Compound 47, 2-amino-6-ethoxy-1-(3-hydroxy-2,6-dimethylphenyl)-11-methyl-4,5-dihydro-1,4,7,10,12-pentaazabenzo[4,5]cyclooctatetraeno[1,2,3-cd]inden-3(1H)-one]"
5,20.9,"Cc1nc2c3c(c(N)n(-c4c(C)ccc(O)c4C)c3n1)C(=O)NCc1c-2ccc(F)c1C#N [Compound 49, 2-amino-7-fluoro-1-(3-hydroxy-2,6-dimethylphenyl)-11-methyl-3-oxo-1,3,4,5-tetrahydro-1,4,10,12-tetraazabenzo[4,5]cyclooctatetraeno[1,2,3-cd]inden-6-carbonitrile]"
